# Data reported in ChEMBL document CHEMBL1148255, “Facile synthesis of fused 1,2,4-triazolo[1,5-c]pyrimidine derivatives as human adenosine A3 receptor ligands” (Bioorg Med Chem Lett, 2004).
# Target: Adenosine receptor A2a (Homo sapiens, UniProt P29274)
# Assay: biochemical
# Sequence of Adenosine receptor A2a (P29274 whole entry): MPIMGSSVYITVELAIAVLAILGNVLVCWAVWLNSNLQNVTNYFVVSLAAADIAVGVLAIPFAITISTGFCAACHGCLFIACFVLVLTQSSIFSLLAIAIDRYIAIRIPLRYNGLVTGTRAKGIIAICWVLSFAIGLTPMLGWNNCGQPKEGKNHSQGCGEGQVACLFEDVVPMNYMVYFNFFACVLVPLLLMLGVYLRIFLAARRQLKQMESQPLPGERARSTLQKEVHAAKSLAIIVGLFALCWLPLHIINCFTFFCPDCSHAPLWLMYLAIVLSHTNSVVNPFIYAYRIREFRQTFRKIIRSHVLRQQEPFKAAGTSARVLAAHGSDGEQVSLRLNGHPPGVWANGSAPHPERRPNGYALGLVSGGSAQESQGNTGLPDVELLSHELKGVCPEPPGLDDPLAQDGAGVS
row,Structure (SMILES),IC50 [nM]
1,CCCCc1nc2[nH]cnc2c2nc(-c3ccc(C(F)(F)F)cc3)nn12,> 10000
